Results on two compounds are retold here after patent US6592899B2, “PLA/PLGA oligomers combined with block copolymers for enhancing solubility of a drug in water” (Macromed Incorporated, priority 2001, dated 2003).

Converted amounts (≈) assume the structure as drawn.

For series [1] the following is noted: cited from earlier work.
A short description of series [2]: Amphotericin B solubility in triblock copolymer solution with or without PLA oligomers (dialysis preparation). The format is physicochemical. The protocol:
The mixture was added to dialysis tubing with a 3500 Dalton molecular weight cutoff and dialyzed against reverse osmosis deionized water (pH=2) overnight. The dialysate was then exchanged for reverse osmosis deionized water and dialyzed overnight. The reported solubility of amphotericin B in water is 3 μg/mL. […] The maximum concentration of amphotericin B in the mixture of PLA oligomers and the triblock copolymer was improved greater then 10 fold than that in the triblock copolymer alone.

Series [3] in a line: Solution stability of paclitaxel in PLGA-PEG-PLGA triblock copolymer with or without PLA oligomer. The format is physicochemical. Particulars: 40 mg paclitaxel, 2 ml water, 0.2 μm filtered. The source says:
The solution stability enhancing properties of PLA oligomers are illustrated in this example. […] The solution was then filtered through a 0.2 μm filter. […] A precipitate appeared within 1 day with the PLGA-PEG-PLGA triblock copolymer system alone, while the solution containing the PLA oligomer maintained paclitaxel in solution and remained clear for more than 3 days.

The nature of series [4]: Solution stability of paclitaxel in Me-PEG-PLGA diblock copolymer with or without PLA oligomer. It is filed as physicochemical. Particulars: 40 mg paclitaxel, 2 mL water. The protocol: The PLA oligomers prepared in Example 4 (75 mg) were added to 600 mg of Me-PEG-PLGA diblock copolymer prepared in Example 9, 40 mg of paclitaxel, and 2 mL of reverse osmosis deionized water. […] The solution was then filtered through a 0.2 μm filter. […] Precipitate began to appear within 1 day from the Me-PEG-PLGA diblock copolymer system alone, while the solution containing the PLA oligomer maintained paclitaxel in solution and remained clear for more than 2 days.

In general, solubility refers to how much of the substance goes into solution per volume. For `C[C@@H]1[C@H](O)[C@@H](C)/C=C/C=C/C=C/C=C/C=C/C=C/C=C/[C@H](O[C@@H]2O[C@H](C)[C@@H](O)[C@H](N)[C@@H]2O)C[C@@H]2O[C@](O)(C[C@@H](O)C[C@@H](O)[C@H](O)CC[C@@H](O)C[C@@H](O)CC(=O)O[C@H]1C)C[C@H](O)[C@H]2C(=O)O` [amphotericin B], the “reported solubility in water” value in series [1] is 3 µg/mL. The “improvement of maximum concentration over the triblock copolymer alone” value in series [2] (mixture of PLA oligomers and the triblock copolymer) was greater than 10 fold. The solubility in series [2] (triblock copolymer solution of Example 1 (entry 1), without PLA oligomers) was 150 µg/mL (≈ 162 µM).

`CC(=O)O[C@H]1C(=O)[C@@]2(C)[C@H]([C@H](OC(=O)c3ccccc3)[C@]3(O)C[C@H](OC(=O)[C@H](O)[C@@H](NC(=O)c4ccccc4)c4ccccc4)C(C)=C1C3(C)C)[C@]1(OC(C)=O)CO[C@@H]1C[C@@H]2O` [paclitaxel]: the “time paclitaxel maintained in solution and remained clear” value in series [3] (PLGA-PEG-PLGA triblock copolymer (600 mg) with PLA oligomer (75 mg)) was “more than 3 days”; in series [4] (Me-PEG-PLGA diblock copolymer (600 mg) with PLA oligomer (75 mg)), “more than 2 days”. Further, the “time until a precipitate appeared” value in series [3] (PLGA-PEG-PLGA triblock copolymer system alone (600 mg)) is no more than 1 days. Also, the “time until precipitate began to appear” value in series [4] (Me-PEG-PLGA diblock copolymer system alone (600 mg)) was no more than 1 days.
